This note sets out measurements from patent publication US11890288B2, “Sulfonamide or sulfinamide compound having effect of inducing BRD4 protein degradation and pharmaceutical use thereof” (MITSUBISHI TANABE PHARMA CORPORATION, priority 2020, dated 2024).

Structures are written as SMILES.

In one assay the target is BRD4 protein (Homo sapiens (Human), UniProt O60885). The assay can be described thus: BRD4 protein degradation inducing action in LNCaP cells (immunofluorescence, 6 hr). It counts as cell-based. The conditions noted are these: anti-BRD4 fluorescence intensity. An outline of the steps:
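Read-out is BRD4 immunofluorescence intensity (560/572 nm) after 6 hr compound treatment of LNCaP cells in 10% FBS/RPMI1640, with fixation, permeabilization and anti-BRD4 staining. Linear interpolation between the two concentrations flanking 50% of untreated intensity gives DC50.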

Assay [1] relates to human prostate cancer LNCaP cells. The assay can be described thus: Cytotoxic action on LNCaP cells (WST-8, 96 hr). The format is cell-based. Conditions: 96 hr culture. In outline:
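Cells were seeded in 10% FBS/RPMI1640 and cultured overnight at 37° C, 5% CO2, then exposed to compound (DMSO stock diluted in medium) for 96 hr. Viable cell number was measured with WST-8. IC50 is the concentration giving 50% survival versus untreated cells, interpolated linearly between the two bracketing points.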

The compound `COC(=O)C[C@@H]1N=C(c2ccc(-c3ccc(C(=O)N[C@H](C)c4ccc(S(=O)(=O)Nc5ccc(C)c6c(C#N)c[nH]c56)cc4)cc3C)cc2)c2c(sc(C)c2C)-n2c(C)nnc21` [Example 88, methyl [(6S)-4-(4′-{[(1R)-1-{4-[(3-cyano-4-methyl-1H-indol-7-yl)sulfamoyl]phenyl}ethyl]carbamoyl}-2′-methyl[1,1′-biphenyl]-4-yl)-2,3,9-trimethyl-6H-thieno[3,2-f][1,2,4]triazolo[4,3-a][1,4]diazepin-6-yl]acetate] had a DC50 at BRD4 protein of 0.37 nM. The compound also yielded a half-inhibitory concentration (IC50) in assay [1] of 0.17 nM.
Turning to `COC(=O)C[C@@H]1N=C(c2ccc(-c3ccc(C(=O)NCCc4ccc(S(=O)(=O)Nc5ccc(C)c6c(C#N)c[nH]c56)cc4)cc3C)cc2)c2c(sc(C)c2C)-n2c(C)nnc21` [Example 89, methyl [(6S)-4-{4′-[(2-{4-[(3-cyano-4-methyl-1H-indol-7-yl)sulfamoyl]phenyl}ethyl)carbamoyl]-2′-methyl [1,1′-biphenyl]-4-yl}-2,3,9-trimethyl-6H-thieno[3,2-f][1,2,4]triazolo[4,3-a][1,4]diazepin-6-yl]acetate], the 50% degradation concentration (DC50) on BRD4 protein worked out at 0.8 nM. Besides, in assay [1], the IC50 amounted to 0.33 nM.
The corresponding values for `COC(=O)C[C@@H]1N=C(c2ccc(-c3ccc(C(=O)NCCc4ccc(S(=O)(=O)Nc5ccc(C)c6c(C#N)c[nH]c56)cc4)nc3)cc2)c2c(sc(C)c2C)-n2c(C)nnc21` [Example 90, methyl [(6S)-4-(4-{6-[(2-{4-[(3-cyano-4-methyl-1H-indol-7-yl)sulfamoyl]phenyl}ethyl)carbamoyl]pyridin-3-yl}phenyl)-2,3,9-trimethyl-6H-thieno[3,2-f][1,2,4]triazolo[4,3-a][1,4]diazepin-6-yl]acetate] are 0.091 nM and 0.19 nM.
For `COC(=O)C[C@@H]1N=C(c2ccc(-c3cnc(C(=O)NCc4ccc(S(=O)(=O)Nc5ccc(C)c6c(C#N)c[nH]c56)cc4)c(C)c3)cc2)c2c(sc(C)c2C)-n2c(C)nnc21` [Example 91, methyl [(6S)-4-(4-{6-[({4-[(3-cyano-4-methyl-1H-indol-7-yl)sulfamoyl]phenyl}methyl)carbamoyl]-5-methylpyridin-3-yl}phenyl)-2,3,9-trimethyl-6H-thieno[3,2-f][1,2,4]triazolo[4,3-a][1,4]diazepin-6-yl]acetate], the half-maximal degradation concentration (DC50) at BRD4 protein worked out at 0.029 nM. Moreover, in assay [1], the half-maximal inhibitory concentration (IC50) stood at 0.26 nM.
The corresponding values for `COC(=O)C[C@@H]1N=C(c2ccc(-c3ccc(C(=O)N[C@H](C)c4ccc(S(=O)(=O)Nc5ccc(C)c6c(C#N)c[nH]c56)cc4)nc3)cc2)c2c(sc(C)c2C)-n2c(C)nnc21` [Example 92, methyl {(6S)-4-[4-(6-{[(1R)-1-{4-[(3-cyano-4-methyl-1H-indol-7-yl)sulfamoyl]phenyl}ethyl]carbamoyl}pyridin-3-yl)phenyl]-2,3,9-trimethyl-6H-thieno[3,2-f][1,2,4]triazolo[4,3-a][1,4]diazepin-6-yl}acetate] are 0.041 nM and 0.087 nM.
At BRD4 protein, `COC(=O)C[C@@H]1N=C(c2ccc(-c3ccc(C(=O)NCc4ccc(S(=O)(=O)Nc5ccc(C)c6c(C#N)c[nH]c56)cc4C)cc3)cc2)c2c(sc(C)c2C)-n2c(C)nnc21` [Example 94, methyl [(6S)-4-{4′-[({4-[(3-cyano-4-methyl-1H-indol-7-yl)sulfamoyl]-2-methylphenyl}methyl)carbamoyl][1,1′-biphenyl]-4-yl}-2,3,9-trimethyl-6H-thieno[3,2-f][1,2,4]triazolo[4,3-a][1,4]diazepin-6-yl]acetate] displayed a half-maximal degradation concentration (DC50) of 0.13 nM. The IC50 in assay [1] was 0.42 nM.
In turn, `COC(=O)C[C@@H]1N=C(c2ccc(-c3cc(F)c(C(=O)N[C@H](C)c4ccc(S(=O)(=O)Nc5ccc(C)c6c(C#N)c[nH]c56)cc4)cc3F)cc2)c2c(sc(C)c2C)-n2c(C)nnc21` [Example 97, methyl [(6S)-4-(4′-{[(1R)-1-{4-[(3-cyano-4-methyl-1H-indol-7-yl)sulfamoyl]phenyl}ethyl]carbamoyl}-2′,5′-difluoro[1,1′-biphenyl]-4-yl)-2,3,9-trimethyl-6H-thieno[3,2-f][1,2,4]triazolo[4,3-a][1,4]diazepin-6-yl]acetate] returned a DC50 at BRD4 protein of 0.064 nM. This compound also came in with a half-maximal inhibitory concentration (IC50) in assay [1] of 0.12 nM.
For `COC(=O)C[C@@H]1N=C(c2ccc(-c3cc(C)c(C(=O)N[C@H](C)c4ccc(S(=O)(=O)Nc5ccc(C)c6c(C#N)c[nH]c56)cc4)cc3F)cc2)c2c(sc(C)c2C)-n2c(C)nnc21` [Example 98, methyl [(6S)-4-(4′-{[(1R)-1-{4-[(3-cyano-4-methyl-1H-indol-7-yl)sulfamoyl]phenyl}ethyl]carbamoyl}-2′-fluoro-5′-methyl[1,1′-biphenyl]-4-yl)-2,3,9-trimethyl-6H-thieno[3,2-f][1,2,4]triazolo[4,3-a][1,4]diazepin-6-yl]acetate] the same measures were 0.098 nM and 0.22 nM.
The corresponding values for `COC(=O)C[C@@H]1N=C(c2ccc(-c3ccc(C(=O)N[C@H](C)c4ccc(S(=O)(=O)Nc5ccc(C)c6c(C#N)c[nH]c56)cc4)c(F)c3F)cc2)c2c(sc(C)c2C)-n2c(C)nnc21` [Example 99, methyl [(6S)-4-(4′-{[(1R)-1-{4-[(3-cyano-4-methyl-1H-indol-7-yl)sulfamoyl]phenyl}ethyl]carbamoyl}-2′,3′-difluoro[1,1′-biphenyl]-4-yl)-2,3,9-trimethyl-6H-thieno[3,2-f][1,2,4]triazolo[4,3-a][1,4]diazepin-6-yl]acetate] are 0.091 nM and 0.14 nM.
For `COC(=O)C[C@@H]1N=C(c2ccc(-c3ccc(C(=O)NCCc4ccc(S(=O)(=O)Nc5ccc(C)c6c(C#N)c[nH]c56)cc4)c(F)c3F)cc2)c2c(sc(C)c2C)-n2c(C)nnc21` [Example 100, methyl [(6S)-4-{4′-[(2-{4-[(3-cyano-4-methyl-1H-indol-7-yl)sulfamoyl]phenyl}ethyl)carbamoyl]-2′,3′-difluoro[1,1′-biphenyl]-4-yl}-2,3,9-trimethyl-6H-thieno[3,2-f][1,2,4]triazolo[4,3-a][1,4]diazepin-6-yl]acetate] the same measures were 0.085 nM and 0.16 nM.
`COC(=O)C[C@@H]1N=C(c2ccc(-c3cnc(C(=O)NCc4ccc(S(=O)(=O)Nc5ccc(C)c6c(C#N)c[nH]c56)cc4)cc3C)cc2)c2c(sc(C)c2C)-n2c(C)nnc21` [Example 101, methyl [(6S)-4-(4-{6-[({4-[(3-cyano-4-methyl-1H-indol-7-yl)sulfamoyl]phenyl}methyl)carbamoyl]-4-methylpyridin-3-yl}phenyl)-2,3,9-trimethyl-6H-thieno[3,2-f][1,2,4]triazolo[4,3-a][1,4]diazepin-6-yl]acetate] displayed a 50% degradation concentration (DC50) on BRD4 protein of 0.15 nM. For the same compound, in assay [1], the IC50 was determined as 0.27 nM.
For the compound `COC(=O)C[C@@H]1N=C(c2ccc(-c3cnc(C(=O)NCCc4ccc(S(=O)(=O)Nc5ccc(C)c6c(C#N)c[nH]c56)cc4)cn3)cc2)c2c(sc(C)c2C)-n2c(C)nnc21` [Example 102, methyl [(6S)-4-(4-{5-[(2-{4-[(3-cyano-4-methyl-1H-indol-7-yl)sulfamoyl]phenyl}ethyl)carbamoyl]pyrazin-2-yl}phenyl)-2,3,9-trimethyl-6H-thieno[3,2-f][1,2,4]triazolo[4,3-a][1,4]diazepin-6-yl]acetate], it took 0.036 nM to reach half-maximal degradation on BRD4 protein (DC50). Also, it took 0.071 nM to reach half-maximal inhibition in assay [1] (IC50).
The corresponding values for `COC(=O)C[C@@H]1N=C(c2ccc(-c3cnc(C(=O)N[C@H](C)c4ccc(S(=O)(=O)Nc5ccc(C)c6c(C#N)c[nH]c56)cc4)cn3)cc2)c2c(sc(C)c2C)-n2c(C)nnc21` [Example 103, methyl {(6S)-4-[4-(5-{[(1R)-1-{4-[(3-cyano-4-methyl-1H-indol-7-yl)sulfamoyl]phenyl}ethyl]carbamoyl}pyrazin-2-yl)phenyl]-2,3,9-trimethyl-6H-thieno[3,2-f][1,2,4]triazolo[4,3-a][1,4]diazepin-6-yl}acetate] are 0.03 nM and 0.067 nM.
Turning to `CCc1ccc(NS(=O)(=O)c2ccc(CNC(=O)c3cnc(-c4ccc(C5=N[C@@H](CC(=O)OC)c6nnc(C)n6-c6sc(C)c(C)c65)cc4)cn3)cc2)c2[nH]cc(C#N)c12` [Example 105, methyl [(6S)-4-(4-{5-[({4-[(3-cyano-4-ethyl-1H-indol-7-yl)sulfamoyl]phenyl}methyl)carbamoyl]pyrazin-2-yl}phenyl)-2,3,9-trimethyl-6H-thieno[3,2-f][1,2,4]triazolo[4,3-a][1,4]diazepin-6-yl]acetate], the DC50 at BRD4 protein was 0.054 nM. This compound also displayed a half-inhibitory concentration (IC50) in assay [1] of 0.13 nM.
Take `CCc1ccc(NS(=O)(=O)c2ccc(CCNC(=O)c3cnc(-c4ccc(C5=N[C@@H](CC(=O)OC)c6nnc(C)n6-c6sc(C)c(C)c65)cc4)cn3)cc2)c2[nH]cc(C#N)c12` [Example 107, methyl [(6S)-4-(4-{5-[(2-{4-[(3-cyano-4-ethyl-1H-indol-7-yl)sulfamoyl]phenyl}ethyl)carbamoyl]pyrazin-2-yl}phenyl)-2,3,9-trimethyl-6H-thieno[3,2-f][1,2,4]triazolo[4,3-a][1,4]diazepin-6-yl]acetate]: the DC50 at BRD4 protein was 0.046 nM. In assay [1], this compound displayed a concentration for half-maximal inhibition (IC50) of 0.26 nM.
The corresponding values for `CCc1ccc(NS(=O)(=O)c2ccc(CNC(=O)c3ccc(-c4ccc(C5=N[C@@H](CC(=O)OC)c6nnc(C)n6-c6sc(C)c(C)c65)cc4)cn3)cc2)c2[nH]cc(C#N)c12` [Example 108, methyl [(6S)-4-(4-{6-[({4-[(3-cyano-4-ethyl-1H-indol-7-yl)sulfamoyl]phenyl}methyl)carbamoyl]pyridin-3-yl}phenyl)-2,3,9-trimethyl-6H-thieno[3,2-f][1,2,4]triazolo[4,3-a][1,4]diazepin-6-yl]acetate] are 0.069 nM and 0.23 nM.

Broadly, the DC50 is the concentration giving 50% degradation. A higher DC50 goes with degradation only at high concentration. One may read the IC50 as the concentration that inhibits the measured activity by half.
